Reference: patent US7728158B2, “PPAR activity regulators” (Ajinomoto Co., Inc., priority 2006, dated 2010)

Tests used:
[1] = biological target: T1, PPAR-γ (Homo sapiens, UniProt P37231); experiment: PPAR-γ reporter assay (GAL4 luciferase, CV-1 cells); assay type: cell-based; conditions: induction ratio of luciferase activity at 25 μM, activity without tested compound = 1, hGR-GAL4-hPPAR-γ
T1 construct: expressed in transfected cells; host or cells: CV-1 (African green monkey kidney)
T1 sequence (P37231 204-505): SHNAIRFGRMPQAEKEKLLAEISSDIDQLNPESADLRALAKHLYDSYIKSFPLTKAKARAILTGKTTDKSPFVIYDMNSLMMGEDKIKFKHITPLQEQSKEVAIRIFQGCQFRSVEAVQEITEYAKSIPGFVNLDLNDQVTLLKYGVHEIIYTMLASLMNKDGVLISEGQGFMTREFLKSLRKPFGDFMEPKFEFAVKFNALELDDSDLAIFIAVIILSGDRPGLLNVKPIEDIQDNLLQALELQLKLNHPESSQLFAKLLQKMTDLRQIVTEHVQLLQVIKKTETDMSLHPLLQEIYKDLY
Procedure: The reporter assay of PPAR-γ was conducted by using the following plasmids in accordance with the known report (Steven A. Kliwer et al., The Journal of Biological Chemistry Vol. 270, No. 22: 12953-12956, 1995).
As luciferase expressing plasmid, used was the plasmid which introduces the sequence wherein 5 yeast GAL4 binding sequences, UAS, are tandemly connected to the upstream of the thymidine kinase promoter of pTAL-Luc (#6252-1, produced by Clontech) (UAS×5-TK-Luc) (1).
(§1) As PPAR-γ receptor expressing plasmid, used was the plasmid which introduces the N-terminal domain of human GR (1-76aa), the yeast GAL4 DNA binding domain (1-147aa) and PPAR-γ2 ligand binding domain (204-505aa) to NotI site and SalI site of pExchange-1 core vector (#211176, produced by Stratagene) (hGR-GAL4-hPPAR-γ) (2). The plasmid mixed solution used in the reporter assay of PPAR-γ contains above (1), (2) and plasmid pcDNA3.1(−) as a carrier in the weight ratio of 4:1:3.
(§2) CV-1 cells were seeded on the 384-well white plate (781080, produced by Greiner) to become 1.5×10^4 cells/30 μL per one well. Then, gene transfer was conducted in accordance with the manual by using OPTI-MEM I (11058-021, produced by GIBCO), FuGENE6 (1-815-075, produced by Roche) and the above PPAR-γ plasmid mixed solution. The incubation was conducted in a carbon-dioxide incubator at 37° C. for 6 to 8 hours. Then, a diluted tested compound was added thereto and incubated in a carbon-dioxide incubator at 37° C. for 16 to 18 hours. Britelite (6016979, produced by PerkinElmer) was further added thereto and stirred, and the luciferase activity was measured with EnVision (produced by PerkinElmer).
(§3) Specifying the luciferase activity without addition of a tested compound as 1, the induction ratio of the luciferase activity by each tested compound was calculated.

[2] = biological target: T2, PPAR-α (Homo sapiens, UniProt Q07869); experiment: PPAR-α reporter assay (GAL4 luciferase, CV-1 cells); assay type: cell-based; conditions: induction ratio of luciferase activity at 50 μM, activity without tested compound = 1, hGR-GAL4-hPPAR-α
T2 construct: expressed in transfected cells; host or cells: CV-1 (African green monkey kidney)
T2 sequence (Q07869 167-468): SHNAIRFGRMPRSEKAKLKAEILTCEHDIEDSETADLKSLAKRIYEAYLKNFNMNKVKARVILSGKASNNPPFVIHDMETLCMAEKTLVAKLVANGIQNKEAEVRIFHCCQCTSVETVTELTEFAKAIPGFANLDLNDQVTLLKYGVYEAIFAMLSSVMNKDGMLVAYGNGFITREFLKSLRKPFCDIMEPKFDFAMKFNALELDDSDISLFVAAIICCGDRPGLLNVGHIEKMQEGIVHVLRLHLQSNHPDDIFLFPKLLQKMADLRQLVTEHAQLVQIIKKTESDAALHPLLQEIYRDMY
Procedure: The reporter assay of PPAR (peroxisome proliferator-activated receptor)-α was conducted by using the following plasmids in accordance with the known report (Steven A. Kliwer et al., The Journal of Biological Chemistry Vol. 270, No. 22: 12953-12956, 1995).
As luciferase expressing plasmid, used was the plasmid which introduces the sequence wherein 5 yeast GAL4 binding sequences, UAS (upstream activating sequence), are tandemly connected to the upstream of the thymidine kinase promoter of pTAL-Luc (#6252-1, produced by Clontech) (UAS×5-TK-Luc) (1).
as §1, with “PPAR-α” for “PPAR-γ”, “PPAR-α” for “PPAR-γ2”, “(167-468aa)” for “(204-505aa)”, “(hGR-GAL4-hPPAR-α)” for “(hGR-GAL4-hPPAR-γ)”
The medium having the following composition was used for seeding cell line CV-1 used in the reporter assay, derived from the kidney of an African green monkey, on the plate; and for diluting the tested compounds. Used was Dulbecco modified Eagle medium (D2902 without phenol red, produced by SIGMA) to which 3.7 g/L of NaHCO3, 3.5 g/L of D-glucose and 10% v/v fetal bovine serum were added.
as §2, with “PPAR-α” for “PPAR-γ”
as §3

| SMILES | PPAR-γ induction ratio [1] | PPAR-α induction ratio [2] |
| --- | --- | --- |
| CCCCCCCCCCCC(=O)NC(C(N)=O)C(C)C (racemic) [Example 21] | 19.2 | 45.0 |
| CCCCCCCCCCCC(=O)N[C@@H](CC(C)C)C(=O)O [Example 15] | 9.7 | 11.0 |
| CCCCCCCCCCCC(=O)NC(C)(C)C(=O)O [Example 17] | 20.3 | 32.0 |
| CCCCCCCCCCCC(=O)N[C@H](C(=O)O)C(c1ccccc1)c1ccccc1 [Example 40] | 1.5 | 2.0 |
| CCCCCCCCCCCC(=O)N(CC)[C@H](C(=O)O)C(C)C [Example 24] | 16.4 | 46.0 |
| CCCCCCCCCCCC(=O)NC1(C(=O)O)CCCCCC1 [Example 44] | 6.7 | 6.2 |
| CCCCCCCCCC(=O)N[C@@H](CC(C)C)C(=O)O [Example 6] | 9.5 | 1.3 |
| CCCCCCCCCCCC(=O)NC(C)(CC)C(=O)O (racemic) [Example 16] | 18.5 | 23.0 |
| CCCCCCCCCCCC(=O)N[C@@H](CCSC)C(=O)O [Example 19] | 20.9 | 24.0 |
| CCCCCCCCCCC(=O)N[C@@H](Cc1ccccc1)C(=O)O [Example 12] | 4.2 | 1.4 |
| CCCCCCCCCCCCCCCCCC(=O)N[C@H](C(=O)O)C(C)C [Example 30] | 13.7 | 15.0 |
| CCCCCCCC(=O)N[C@H](C(=O)O)C(C)C [Example 1] | 11.9 | 1.5 |
| CCCCCCCCCCCC(=O)NC(C(=O)O)C(C(F)(F)F)C(F)(F)F (racemic) [Example 34] | 2.7 | 2.3 |
| CCCCCCCCCCCC(=O)N[C@H](C(=O)O)C(C)(C)C [Example 33] | 30.2 | 81.0 |
| C=CCCCCCCCCC(=O)N[C@H](C(=O)O)C(C)C [Example 10] | 15.3 | 23.0 |
| CCCCCCCCCCCC(=O)NC(Cc1ccccc1C)C(=O)O (racemic) [Example 38] | 3.2 | 2.8 |
| CCCCCCCCCCCC(=O)NC(C)(Cc1ccccc1)C(=O)O (racemic) [Example 41] | 5.1 | 7.3 |
| CCCCCCCCCCCC(=O)N[C@@H](Cc1csc2ccccc12)C(=O)O [Example 43] | 2.2 | 3.0 |
| CCCCCCCCCCC(=O)N[C@@H](CC(C)C)C(=O)O [Example 11] | 11.6 | 3.0 |
| CCCCCCCCCCCC(=O)N[C@H](C(=O)O)C1CCCCC1 [Example 39] | 11.2 | 2.3 |
| CCCCCCCCC(=O)N[C@H](C(=O)O)[C@@H](C)CC [Example 2] | 12.5 | 2.1 |

| SMILES | PPAR-γ induction ratio [1] | PPAR-α induction ratio [2] |
| --- | --- | --- |
| CCCCCCCCCCCC(=O)N[C@@H](Cc1ccc(Cl)cc1)C(=O)O [Example 42] | 6.6 | 14.4 |
| CCCCCCCCCCCCCCCC(=O)N[C@H](C(=O)O)C(C)C [Example 28] | 17.1 | 29.0 |
| CCCCCCCCC(=O)N[C@@H](CC(C)C)C(=O)O [Example 3] | 6.1 | 0.9 |
| CCCCCCCCCCCC(=O)N[C@@H](Cc1ccc(OC)cc1)C(=O)O [Example 37] | 19.5 | 24.5 |
| CCCCCCCCCCCCCCCCCC(=O)N[C@@H](CC(C)C)C(=O)O [Example 29] | 12.3 | 1.6 |
| CCCCCCCCCCCCCCCC(=O)N[C@@H](CC(C)C)C(=O)O [Example 27] | 11.7 | 2.5 |
| CCCCCCCCCCCCNC(=O)C(NC(=O)CCCCCCCCCCC)C(C)C (racemic) [Example 22] | 16.6 | 44.0 |
| CCCCCCCCCC(=O)N[C@H](C(=O)O)[C@@H](C)CC [Example 5] | 15.9 | 3.5 |
| CCCCCCCCCCCC(=O)N[C@H](C(=O)O)c1ccccc1 [Example 36] | 8.7 | 12.5 |
| CCCCCCCCCCCC(=O)N[C@H](C(=O)O)C(C)C [Example 20, N-lauroyl-L-valine] | 19.1 | 52.0 |
| CCCCCCCCCC(=O)N[C@H](C(=O)O)C(C)(C)C [Example 32] | 15.2 | 31.5 |
| CCCCCCCCCCCC(=O)NC(C)C(=O)O (racemic) [Example 13] | 15.4 | 25.0 |
| CCCCCCCCCCCC(=O)NC(C)(C(=O)O)C(C)C (racemic) [Example 18] | 24.0 | 39.0 |
| C=CCCCCCCCCC(=O)N[C@@H](CC(C)C)C(=O)O [Example 7] | 11.5 | 2.7 |
| CCCCCCCCC(=O)N[C@H](C(=O)O)C(C)C [Example 4] | 12.9 | 3.1 |
| CCCCCCCCCCCCCC(=O)N[C@@H](CC(C)C)C(=O)O [Example 26] | 21.0 | 33.0 |
| CCCCCCCCCCCC(=O)N[C@H](C(=O)O)[C@H](C)CC [Example 35] | 21.1 | 54.7 |
| CCCCCCCCCCCC(=O)N[C@H](C(=O)NC1CCCCC1)C(C)C (racemic) [Example 23, N-lauroyl-L-valine cyclohexylamide] | 21.3 | 63.0 |
| CCCCCCCCCC(=O)N[C@H](C(=O)O)C(C)C [Example 9] | 25.4 | 19.0 |
| C=CCCCCCCCCC(=O)N[C@@H](Cc1ccccc1)C(=O)O [Example 8] | 4.4 | 1.3 |
